Measured values reported in patent US8952024B2, “Herbicidal pyrimidone derivatives” (E I du Pont de Nemours and Company, priority 2009, dated 2015).

Experiments:
Assay type in all cases: in vivo
[1] = tested on: Italian ryegrass (Lolium multiflorum); test: Test C plant response; conditions: Postemergence, scale 0 to 100
In short: (§1)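 Formulation: non-phytotoxic solvent + surfactant. Controlled growth environment, 14 d. Visual rating vs controls, 0 = no effect, 100 = complete control; dash = no result.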

[2] = tested on: Russian thistle (Salsola iberica); test: Test C plant response; conditions: Postemergence, scale 0 to 100
In short: as §1

[3] = tested on: bromegrass (downy bromegrass, Bromus tectorum); test: Test C plant response; conditions: Postemergence, scale 0 to 100
In short: as §1

[4] = tested on: green foxtail (Setaria viridis); test: Test C plant response; conditions: Postemergence, scale 0 to 100
In short: as §1

[5] = tested on: kochia (Kochia scoparia); test: Test C plant response; conditions: Postemergence, scale 0 to 100
In short: as §1

[6] = tested on: lambsquarters (Chenopodium album); test: Test C plant response; conditions: Postemergence, scale 0 to 100
In short: as §1

[7] = tested on: oilseed rape (Brassica napus); test: Test C plant response; conditions: Postemergence, scale 0 to 100
In short: as §1

[8] = tested on: pigweed (Amaranthus retroflexus); test: Test C plant response; conditions: Postemergence, scale 0 to 100
In short: as §1

[9] = tested on: spring barley (Hordeum vulgare); test: Test C plant response; conditions: Postemergence, scale 0 to 100
In short: as §1

[10] = tested on: wild mustard (Sinapis arvensis); test: Test C plant response; conditions: Postemergence, scale 0 to 100
In short: as §1

[11] = tested on: wild oat (Avena fatua); test: Test C plant response; conditions: Postemergence, scale 0 to 100
In short: as §1

[12] = tested on: windgrass (Apera spica-venti); test: Test C plant response; conditions: Postemergence, scale 0 to 100
In short: as §1

[13] = tested on: Russian thistle (Salsola iberica); test: Test F combination of compound 2 with bromoxynil, postemergence; conditions: 15 days, mean of three replicates, scale 0 to 100
Procedure: Test F evaluated the effect of combining compound 2 with bromoxynil. The test species for this experiment was Russian thistle (Salsola iberica), which was prepared by sowing seeds into a blend of loam soil and sand. Test chemicals were formulated in a non-phytotoxic solvent mixture that included a surfactant and applied postemergence to plants ranging in height from 12 to 20 cm. […] Treatments consisted of Compound 2, bromoxynil, or their combination, using a spray volume of 457 L/ha. Each treatment was replicated three times. Treated plants and untreated controls were maintained in a greenhouse for 15 days, after which time all plants were visually evaluated and compared to the untreated controls. […] Colby's Equation was used to determine the herbicidal effects expected from the mixtures. Colby's Equation (Colby, S.

[14] = tested on: chickweed (common chickweed, Stellaria media); test: Test C plant response; conditions: Preemergence, scale 0 to 100
[15] = tested on: field poppy (Papaver rhoeas); test: Test C plant response; conditions: Preemergence, scale 0 to 100
[16] = tested on: Italian ryegrass (Lolium multiflorum); test: Test C plant response; conditions: Preemergence, scale 0 to 100
[17] = tested on: Russian thistle (Salsola iberica); test: Test C plant response; conditions: Preemergence, scale 0 to 100
[18] = tested on: buckwheat (wild buckwheat, Polygonum convolvulus); test: Test C plant response; conditions: Preemergence, scale 0 to 100
[19] = tested on: wild radish (Raphanus raphanistrum); test: Test C plant response; conditions: Preemergence, scale 0 to 100
[20] = tested on: windgrass (Apera spica-venti); test: Test C plant response; conditions: Preemergence, scale 0 to 100
[21] = tested on: winter barley (Hordeum vulgare); test: Test C plant response; conditions: Preemergence, scale 0 to 100

## O=C1CCCC(O)=C1C(=O)c1cnc(-c2ccccc2)n(-c2ccccc2)c1=O [Compound 2, 5-[(2-hydroxy-6-oxo-1-cyclohexen-1-yl)carbonyl]-2,3-diphenyl-4(3H)-pyrimidinone]
[1]; 16 g ai/ha
  Plant response rating: Ryegrass, Italian: 0
[1]; 31 g ai/ha
  Plant response rating: Ryegrass, Italian: 0
[1]; 62 g ai/ha
  Plant response rating: Ryegrass, Italian: 15
[1]; 125 g ai/ha
  Plant response rating: Ryegrass, Italian: 30
[2]; 16 g ai/ha
  Plant response rating: Russian Thistle: 35
[2]; 31 g ai/ha
  Plant response rating: Russian Thistle: 60
[2]; 62 g ai/ha
  Plant response rating: Russian Thistle: 70
[2]; 125 g ai/ha
  Plant response rating: Russian Thistle: 95
[3]; 16 g ai/ha
  Plant response rating: Bromegrass, Downy: 10
[3]; 31 g ai/ha
  Plant response rating: Bromegrass, Downy: 20
[3]; 62 g ai/ha
  Plant response rating: Bromegrass, Downy: 30
[3]; 125 g ai/ha
  Plant response rating: Bromegrass, Downy: 50
[4]; 16 g ai/ha
  Plant response rating: Foxtail, Green: 65
[4]; 31 g ai/ha
  Plant response rating: Foxtail, Green: 75
[4]; 62 g ai/ha
  Plant response rating: Foxtail, Green: 95
[4]; 125 g ai/ha
  Plant response rating: Foxtail, Green: 95
[5]; 16 g ai/ha
  Plant response rating: Kochia: 65
[5]; 31 g ai/ha
  Plant response rating: Kochia: 70
[5]; 62 g ai/ha
  Plant response rating: Kochia: 75
[5]; 125 g ai/ha
  Plant response rating: Kochia: 98
[6]; 16 g ai/ha
  Plant response rating: Lambsquarters: 70
[6]; 31 g ai/ha
  Plant response rating: Lambsquarters: 75
[6]; 62 g ai/ha
  Plant response rating: Lambsquarters: 80
[6]; 125 g ai/ha
  Plant response rating: Lambsquarters: 98
[7]; 16 g ai/ha
  Plant response rating: Oilseed Rape: 60
[7]; 31 g ai/ha
  Plant response rating: Oilseed Rape: 60
[7]; 62 g ai/ha
  Plant response rating: Oilseed Rape: 70
[7]; 125 g ai/ha
  Plant response rating: Oilseed Rape: 90
[8]; 16 g ai/ha
  Plant response rating: Pigweed: 35
[8]; 31 g ai/ha
  Plant response rating: Pigweed: 40
[8]; 62 g ai/ha
  Plant response rating: Pigweed: 75
[8]; 125 g ai/ha
  Plant response rating: Pigweed: 90
[9]; 16 g ai/ha
  Plant response rating: Barley, Spring: 0
[9]; 31 g ai/ha
  Plant response rating: Barley, Spring: 0
[9]; 62 g ai/ha
  Plant response rating: Barley, Spring: 0
[9]; 125 g ai/ha
  Plant response rating: Barley, Spring: 0
[10]; 16 g ai/ha
  Plant response rating: Mustard, Wild: 98
[10]; 31 g ai/ha
  Plant response rating: Mustard, Wild: 98
[10]; 62 g ai/ha
  Plant response rating: Mustard, Wild: 98
[11]; 16 g ai/ha
  Plant response rating: Oat, Wild: 0
[11]; 31 g ai/ha
  Plant response rating: Oat, Wild: 15
[11]; 62 g ai/ha
  Plant response rating: Oat, Wild: 25
[11]; 125 g ai/ha
  Plant response rating: Oat, Wild: 25
[12]; 16 g ai/ha
  Plant response rating: Windgrass: 5
[12]; 31 g ai/ha
  Plant response rating: Windgrass: 20
[12]; 62 g ai/ha
  Plant response rating: Windgrass: 25
[12]; 125 g ai/ha
  Plant response rating: Windgrass: 40
[13]; Cmpd 2 62 g a.i./ha alone
  Russian Thistle Obsd. (observed effect): 42
[13]; Cmpd 2 125 g a.i./ha alone
  Russian Thistle Obsd. (observed effect): 52
[14]; 62 g ai/ha
  Plant response rating: Chickweed: 98
[14]; 125 g ai/ha
  Plant response rating: Chickweed: 98
[14]; 16 g ai/ha
  Plant response rating: Chickweed: 75
[14]; 31 g ai/ha
  Plant response rating: Chickweed: 98
[15]; 62 g ai/ha
  Plant response rating: Field Poppy: 95
[15]; 125 g ai/ha
  Plant response rating: Field Poppy: 100
[15]; 31 g ai/ha
  Plant response rating: Field Poppy: 75
[16]; 62 g ai/ha
  Plant response rating: Ryegrass, Italian: 0
[16]; 125 g ai/ha
  Plant response rating: Ryegrass, Italian: 0
[16]; 16 g ai/ha
  Plant response rating: Ryegrass, Italian: 0
[16]; 31 g ai/ha
  Plant response rating: Ryegrass, Italian: 0
[17]; 62 g ai/ha
  Plant response rating: Russian Thistle: 0
[17]; 16 g ai/ha
  Plant response rating: Russian Thistle: 0
[17]; 31 g ai/ha
  Plant response rating: Russian Thistle: 0
[18]; 62 g ai/ha
  Plant response rating: Buckwheat, Wild: 0
[18]; 125 g ai/ha
  Plant response rating: Buckwheat, Wild: 0
[18]; 16 g ai/ha
  Plant response rating: Buckwheat, Wild: 0
[18]; 31 g ai/ha
  Plant response rating: Buckwheat, Wild: 0
[19]; 62 g ai/ha
  Plant response rating: Radish, Wild: 0
[19]; 125 g ai/ha
  Plant response rating: Radish, Wild: 0
[19]; 16 g ai/ha
  Plant response rating: Radish, Wild: 0
[19]; 31 g ai/ha
  Plant response rating: Radish, Wild: 0
[20]; 62 g ai/ha
  Plant response rating: Windgrass: 25
[20]; 125 g ai/ha
  Plant response rating: Windgrass: 25
[20]; 16 g ai/ha
  Plant response rating: Windgrass: 0
[20]; 31 g ai/ha
  Plant response rating: Windgrass: 15
[21]; 62 g ai/ha
  Plant response rating: Barley, Winter: 0
[21]; 125 g ai/ha
  Plant response rating: Barley, Winter: 0
[21]; 16 g ai/ha
  Plant response rating: Barley, Winter: 0
[21]; 31 g ai/ha
  Plant response rating: Barley, Winter: 0
